Assay results taken from patent US11034702B2, “Thienoisoquinolines and their derivatives for the treatment of cancer” (VALORBEC, SOCIÉTÉ EN COMMANDITE, priority 2016, dated 2021).

Tests used:
[1] = test system: HeLa (cervical adenocarcinoma) cells; experiment: IC50 (viability) in HeLa cells; type: cell-based, human
Method: 19 variants with different structural modifications have been made. […] In particular, it is shown that C75 causes death in multiple cancer cells with IC50 values in the 100 nM range, including breast cancers (MCF7, BT549), lung cancer (A549), colorectal cancer (HCT116) in addition to HeLa cells (cervical cancer).

HCT116 cells = experiment: Mitotic spindle phenotype and centrosome fragment distance in HCT116 cells; type: cell-based
Method: (§1) FIG. 2A) is a line graph showing the percentage of HCT116 (p53−/−) cells, A549 cells, HeLa cells and H1299 cells in mitosis after treatment with various concentrations of C75 for one population doubling time. All of the cell lines show an increase in the proportion of mitotic cells after treatment with 200 nM C75. The bars indicate standard deviation. […] While the mitotic spindles were not dramatically altered by C75 in HFF1 cells, they were monopolar (as shown) or fragmented in the other cell types. […] The mitotic spindles were more strongly fragmented after C75 treatment in these cells vs. the cells in FIG. 2B). […] While mitotic spindles recovered bipolarity after removing nocodazole, they remained multipolar after removing C75. FIG. 2F) is a series of time-lapse images of a live HeLa cell expressing GFP:tubulin after treatment with C75 as shown in 2D) and 2E). The scale bar for all cells is 10 μm. FIG. 2G) is a schematic showing the putative target for C75. Healthy cells have two centrosomes that separate and form a bipolar spindle, while cancer cells have aberrant centrosomes that cluster to form ‘pseudo’ bipolar spindles, and C75 may target this process and their integrity.
FIG. 3A) is a line graph showing the percentage of mitotic HeLa or HFF1 cells treated with a range of paclitaxel (Taxol™; tubulin-targeting drug) concentrations+/−C75 as indicated. The bars indicate standard deviation. FIG. 3B) is a series of bar graphs showing the proportion of HCT116 cells that have monopolar spindles, bipolar spindles with aligned chromosomes, bipolar spindles with misaligned chromosomes and multipolar/fragmented spindles after treatments as shown. Treatments include DMSO (control), varying concentrations of paclitaxel and/or varying concentrations of C75 after 7 hours. While treatment of HCT116 cells with 2.5 nM paclitaxel caused a threshold of mitotic spindle phenotypes, adding increasing concentrations of C75 in combination with 2.5 nM paclitaxel caused the phenotypes to progressively worsen. FIG. 3C) is bar graph showing the average distance between centrosome fragments in HCT116 cells after treatments as shown. While centrosome fragments moved closer together with increased concentrations of paclitaxel, they moved further apart with increased concentrations of C75. […] FIG. 3E) is a line graph showing the percentage of mitotic HeLa or HFF1 cells treated with a range of nocodazole concentrations+/−C75 as indicated. The bars indicate standard deviation. […]
(§2) C75 was also tested for efficacy in different cancer cell lines. […] To further assess the role of C75 in affecting centrosomes, HeLa cells were treated with C75 for a short period of time (5 minutes), then C75 was removed and the cells were analyzed for spindle phenotypes (schematic in FIG. 2D). […]

A549 cells = experiment: Mitotic arrest (percentage of cells in mitosis) in A549 cells; type: cell-based, human; settings: A549, within one population doubling time
Method: as §1, with “Healthy cells have two centrosomes that separate and form a bipolar spindle, while cancer cells have aberrant centrosomes that cluster to form ‘pseudo’ bipolar spindles, and C75 may target this process and their integrity.” left out
as §2

Which IC50 ([1]; Homo sapiens, HeLa cells, cells printed in nM) does the source give for COc1ccc(S(=O)(=O)N2Cc3ccccc3-c3sc(Br)cc32)cc1 [Compound C75] here?
Its IC50 is 27 nM.

What about the “efficacy (effect on viability) in cancer cells vs. non-cancer cells” value ([1]; comparison of Table 3 IC50 values, cancer vs. non-cancer cells) of the same compound?
The value was “higher efficacy”.

What about the mitotic spindle phenotype (HCT116 cells; HCT116 (p53-/-), 300 nM, 6-8 hours) of the same compound?
Its mitotic spindle phenotype is “most of the spindles were severely fragmented”.

And the “effect of C75 on phenotypes caused by paclitaxel” value (HCT116 cells; HCT116, 2.5 nM paclitaxel + increasing C75, 7 hours)?
The value was “enhances the phenotypes”.

What about the “change of centrosome fragment distance when paclitaxel was combined with C75” value (HCT116 cells; HCT116, paclitaxel + C75) of the same compound?
The value was “significant increase in fragment distance”.

What about the “concentration causing mitotic arrest” value (A549 cells) of the same compound?
The value was 100 to 200 nM.
